BindingDB's records for doi:10.1016/j.bmcl.2017.11.040 (Hawaii Biotech, 2018)
pKi: −log10 of the molar value.

Molecular target: T1, Calmodulin-sensitive adenylate cyclase (Bacillus anthracis, UniProt P40136)
T1 sequence (P40136 whole entry): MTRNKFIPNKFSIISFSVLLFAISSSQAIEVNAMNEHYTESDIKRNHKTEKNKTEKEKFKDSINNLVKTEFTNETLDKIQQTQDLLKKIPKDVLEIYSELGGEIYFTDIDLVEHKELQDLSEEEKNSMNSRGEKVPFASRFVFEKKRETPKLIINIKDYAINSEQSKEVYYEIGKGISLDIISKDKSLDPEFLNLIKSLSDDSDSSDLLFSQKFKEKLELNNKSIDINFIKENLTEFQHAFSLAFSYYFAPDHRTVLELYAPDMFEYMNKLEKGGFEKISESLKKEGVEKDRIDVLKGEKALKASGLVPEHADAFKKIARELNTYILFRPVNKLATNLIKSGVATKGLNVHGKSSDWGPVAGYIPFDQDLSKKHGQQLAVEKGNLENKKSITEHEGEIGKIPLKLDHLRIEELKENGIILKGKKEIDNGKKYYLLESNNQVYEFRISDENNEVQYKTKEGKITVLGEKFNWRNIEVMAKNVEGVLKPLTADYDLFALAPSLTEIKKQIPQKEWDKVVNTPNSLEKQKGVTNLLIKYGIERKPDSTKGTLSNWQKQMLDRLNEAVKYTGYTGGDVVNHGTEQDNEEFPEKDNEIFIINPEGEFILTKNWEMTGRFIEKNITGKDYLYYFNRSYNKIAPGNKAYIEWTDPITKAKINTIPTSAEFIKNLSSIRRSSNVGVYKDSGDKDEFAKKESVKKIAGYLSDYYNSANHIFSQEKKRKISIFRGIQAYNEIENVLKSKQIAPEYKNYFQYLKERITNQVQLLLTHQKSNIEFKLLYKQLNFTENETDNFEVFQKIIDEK
Experiment: Inactivation of Bacillus anthracis edema factor in presence of CaM incubated for 10 to 240 mins by EnzChek pyrophosphate assay

SMILES: Nc1cc(OC2CCN(C(=O)c3ccc(S(=O)(=O)F)cc3)CC2)ccn1
- pKi: 4.23
